Measurements as given in paper PMC10938783, “A novel pan-PI3K inhibitor KTC1101 synergizes with anti-PD-1 therapy by targeting tumor suppression and immune activation” (Molecular Cancer, 2024).
Read-outs that look alike come from different tables or passages of the source.

Key:
[1] = Plasma metabolic stability assay; format: in vitro ADME; details: mouse plasma, 37°C, 120 min incubation
Procedure: 495 µL of plasma was placed in a 96-well plate and pre-incubated at 37°C for 5 min.

Tregs = experiment: T cell suppression assay (CFSE); format: cell-based, mouse
Procedure: Spleens from naive mice were isolated and ground through 70-μm filters to generate a single-cell suspension. After RBC lysis, single-cell suspensions were stained with CD3, CD8, CD4, CD25 or CD127 antibodies. Viable CD8^+ T cells (CD3^+CD8^+), CD4^+ T cells (CD3^+CD4^+), and Tregs (CD3^+CD4^+CD25^+CD127^low/−) from single-cell suspensions were sorted by FACS. Then T cells were labelled with […] in pre-warmed PBS for 10 min at 37 °C. The CFSE-labelled T cells were seeded in 96-well plates pre-coated with 10 μg/mL CD3 and 1 μg/mL CD28 antibodies and cultured in 1640 media with 10% FBS, 1 mM Sodium Pyruvate (Thermo, 11,360,070), 50 μM β-ME and 100 IU/mL IL2, as well as different concentrations of KTC1101 or solvent control. After 72 h, cells were harvested and the CFSE signal was measured by flow cytometry. Cell growth rate was calculated by the percentage of live, proliferated cell number at each drug concentration vs. solvent control.

TMD8 tumors = experiment: TMD8 xenograft in NSG mice; format: in vivo, mouse
Procedure: (§1) BALB/c nude, NSG, and C57BL/6J mice were obtained from Tianjin Medical University. The housing temperature was controlled, ranging from 20.5–24 °C, and humidity was monitored but not controlled ranging from 30–70%. The 12-h daily light cycle was from 06:00 to 18:00. To generate a murine subcutaneous tumor model, PC3 and HSC2 cells were subcutaneously injected into the right lateral flank of 4- to 5-week-old male BALB/c nude mice. TMD8, CAL33, and S24 cells were subcutaneously injected into the right lateral flank of 4- to 5-week-old male NSG mice. When tumors reached a volume of 300–500 mm^3, they were excised, diced into 2 mm × 2 mm × 2 mm pieces, and implanted into the right flanks of BALB/c nude or NSG mice. Tumors were allowed to grow to a volume of 100 mm^3, and then the animals were randomly divided into several groups. Each group of five mice was treated with either vehicle or KTC1101 (25, 50, or 100 mg/kg, PO). Tumor size was measured every 3 d or 4 d until the endpoint. The tumor volume was calculated using the following formula: length × width × height/2. At the end of the experimental period, mice were euthanized by overdosing on pentobarbital sodium, and the tumors were removed. Tumor tissue was formalin-fixed and paraffin-embedded for histological analysis.

HSC2 tumors = experiment: HSC2 xenograft in BALB/c nude mice; format: in vivo, mouse; details: 100 mg/kg PO
Procedure: as §1

CCL5 and CXCL10 = experiment: qRT-PCR and ELISA of chemokines in B16 cells; format: cell-based, mouse; details: 48 h
Procedure: qRT-PCR was performed as previously described. RNA was isolated using Trizol and used to synthesize complementary DNA (cDNA) using a cDNA Synthesis Kit (GenStar), and RT-PCR was performed with aliquots of cDNA samples mixed with SYBR Green MasterMix (Applied Biosystems). Reactions were performed in triplicate.
We examined the secreted cytokines from B16 cells under both in vitro and in vivo conditions. For in vitro-cultured B16 cells, the cells were seeded into six-well plates and treated with either DMSO or a range of KTC1101 concentrations. After 48 h, the total cell count was determined, and the cell culture supernatant was collected for further analysis. For in vivo tumor tissues, the harvested tumor tissues were homogenized. Post-centrifugation, the supernatant was collected and used for protein quantification utilizing a BCA kit. The concentrations of murine CCL5 and CXCL10 in these supernatants were then quantified using specific ELISA kits, in accordance with the manufacturer's instructions.

[2] = Pharmacokinetic study of oral administration; format: in vivo; details: mouse, blood, BALB/c male mice, 100 mg/kg p.o.
Procedure: Chromatographic conditions employed a Waters BEH C18 column (2.1 mm × 50.0 mm, 1.7 µm) with a mobile phase comprising acetonitrile with 0.1% formic acid (A) and water with 0.1% formic acid (B), at a flow rate of 0.4 mL/min and a column temperature of 40°C. Gradient elution was used: 0–0.3 min, 20:80 → 20:80 (A:B); 0.3–2.5 min, 20:80 → 60:40 (A:B); 2.5–3.0 min, 60:40 → 100:0 (A:B); 3.0–3.01 min, 100:0 → 20:80 (A:B); 3.01–3.5 min, 20:80 → 20:80 (A:B). Mass spectrometry was performed using electrospray ionization (ESI) in positive ion mode, with a capillary voltage of 1 kV, a desolvation temperature of 450 °C, and a desolvation gas flow of 800 L/h. KTC1101 and internal standard phenacetin parameters were optimized for ionization and collision energies.
KTC1101 was prepared at 1 mg/mL concentration in acetonitrile, and further diluted to create a series of standard solutions. Blood samples were taken from BALB/c male mice (19 ± 2g) at various time points post-oral administration of KTC1101 (100 mg/kg). Samples were processed and analyzed using HPLC coupled with mass spectrometry. Data were calculated using Masslynx 4.1 and DAS 3.0 software.

[3] = system: JFCR39 panel of 39 human tumor cell lines; experiment: JFCR39 panel growth inhibition, panel statistics; format: cell-based; details: for GI50: Homo sapiens
Procedure: JFCR39 drug discovery system was used to measure the growth inhibitory activities and identify the target of KTC1101. The JFCR39 panel consists of 39 cell lines seeded in 96-well plates. After 48-h treatment with KTC1101, cell growth was measured using the sulforhodamine B assay. […] The deviation of log GI50 for each cell line from the average log GI50 across the JFCR39 panel was plotted as a fingerprint. MG-MID (mean of Log GI50 values) represents the average log GI50 for all 39 cell lines. The most sensitive and least sensitive cell lines were identified by calculating the difference in their log GI50 values (Range) and the difference between the most sensitive cell line and the average GI50 on the JFCR39 panel (Delta). The fingerprint of KTC1101 was compared with the fingerprints of reference compounds in the database. The Pearson correlation coefficient (r) was calculated (n = 39).

[4] = Liver microsome metabolic stability assay; details: mouse, liver microsomes
B16 tumors = experiment: B16 syngeneic model in C57BL/6 mice; format: in vivo, mouse

COc1cc(N)cc2c1nc(C(F)F)n2-c1nc(N2CCCOCC2)nc(N2CCOCC2)n1 [KTC1101, 2-(difluoromethyl)-4-methoxy-1-(4-morpholino-6-(1,4-oxazepan-4-yl)-1,3,5-triazin-2-yl)-1H-benzo[d]imidazol-6-amine]
half-life at 1 µM [1]: > 120 min
selective inhibition of Treg proliferation over CD8^+ T cells (Tregs): over a tenfold greater extent than CD8^+ T cells
IC50 (Tregs; Mus musculus, T-cell, 72 h, read-out: IC50 proliferation): 2.58 nM
tumor growth (TMD8 tumors; 100 mg/kg PO): slowed tumor progression
efficacy versus ZSTK474 and Copanlisib (TMD8 tumors; 100 mg/kg and 125 mg/kg PO): marginally outperformed those of 200 mg/kg ZSTK474 orally and was comparable to 14 mg/kg Copanlisib intravenously
tumor growth (HSC2 tumors): Tumor growth arrest
expression levels of CCL5 and CXCL10 (CCL5 and CXCL10): significantly stimulated
AUC(0-t) [2]: 9330 ng·h/mL
Cmax [2]: 1660 ng/mL
Tmax [2]: 40.2 min
half-life [2]: 431 ± 244 min
CL/F ([2]; read-out: CLz/F (converted)): 179 mL/min/kg
Vd/F ([2]; read-out: Vz/F): 118 ± 85.5 L/kg
GI50 ([3]; JFCR39 panel, read-out: mean GI50 across all 39 cell lines): 23.4 nM
GI50 ([3]; all 39 cell lines, read-out: MG-MID (mean of Log GI50 values) (converted)): 23.4 nM
fold lower mean GI50 than Copanlisib ([3]; JFCR39 panel): 5.7 fold
fold lower mean GI50 than ZSTK474 ([3]; JFCR39 panel): 13.7 fold
half-life at 1 µM [4]: 40.7 min
microsomal CLint at 1 µM [4]: 34 µL/min/mg
tumor growth over 14 days (B16 tumors; B16, 50 mg/kg, daily): comparably suppressed tumor growth
mouse body weight (B16 tumors; B16, 100 mg/kg 3 days on/4 days off and 50 mg/kg daily, 14 days): without significant changes in mouse body weight
tumor growth over 14 days (B16 tumors; B16, 100 mg/kg, 3 days on/4 days off): comparably suppressed tumor growth
mouse survival (B16 tumors; B16, intermittent regimen 100 mg/kg 3 days on/4 days off vs continuous): notably prolonged mouse survival
